One block for each molecule: values may come before it.
Key:
L1210 leukemia cells = assay: Cytotoxicity against L1210 leukemia cell line in vitro; format: cell-based; conditions: Mus musculus, drug concentration required to inhibit cancer cell replication by 50%, tested up to 100 μM
Experimental: (§1) The synthesized compounds were evaluated in vitro for their cytotoxicity against the L1210 and P388 leukemias, the CCRF-CEM lymphoblastic leukemia, and the B16F10 melanoma cell lines and the results are shown in Table 2.

P388 leukemia cells = assay: Cytotoxicity against P388 leukemia cell line in vitro; format: cell-based; conditions: Mus musculus, drug concentration required to inhibit cancer cell replication by 50%, tested up to 100 μM
Experimental: as §1

[1] = test system: CCRF-CEM lymphoblastic leukemia cells; assay: Cytotoxicity against CCRF-CEM lymphoblastic leukemia cell line in vitro; format: cell-based; conditions: Homo sapiens, drug concentration required to inhibit cancer cell replication by 50%, tested up to 100 μM
Experimental: as §1

B16F10 melanoma cells = assay: Cytotoxicity against B16F10 melanoma cell line in vitro; format: cell-based; conditions: Mus musculus, B16-F10; drug concentration required to inhibit cancer cell replication by 50%; tested up to 100 μM
Experimental: as §1

hepatitis B virus (HBV) = assay: Antiviral assay against hepatitis B virus in vitro; format: cell-based; conditions: maximum tested concentration 10 μM
Experimental: Antiviral assays were performed against hepatitis B virus (HBV) and human immunodeficiency virus (HIV-IIIB) in vitro as previously described. Lin, T. S.; Luo, M. Z.; Liu, M. C.; Pai, S. B.; Dutschman, G. E.; Cheng, Y. C., J. Med. Chem. 1994 37, 798-803.

[2] = test system: L1210, P388, CCRF-CEM and B16F10 cells; assay: Cytotoxicity against the panel of neoplastic cell lines, summary in words; format: cell-based; conditions: concentrations up to 100 μM
Experimental: as §1

EC50 (hepatitis B virus (HBV)): 9.2 µM
Structure (SMILES): Nc1ncc(F)c2c1ncn2[C@@H]1O[C@H](CO)[C@@H](O)[C@H]1O [Compound 51, 4-Amino-7-fluoro-1-(β-D-ribofuranosyl)imidazo[4,5-c]pyridine]
IC50 (L1210 leukemia cells): 15 µM
IC50 (P388 leukemia cells): 100 µM
IC50 [1]: 60 µM
IC50 (B16F10 melanoma cells): 45 µM
activity against these neoplastic cell lines (in words) [2]: moderate to weak activities

melting point: 169 °C (dec.)
Structure (SMILES): Nc1ncc(Cl)c2c1ncn2[C@@H]1O[C@H](CO)[C@@H](O)[C@H]1O [Compound 52, 4-Amino-7-chloro-1-(β-D-ribofuranosyl)imidazo[4,5-c]pyridine]
IC50 (L1210 leukemia cells): > 100 µM
IC50 (P388 leukemia cells): > 100 µM
IC50 [1]: > 100 µM
IC50 (B16F10 melanoma cells): > 100 µM

Structure (SMILES): Nc1[nH]c(=O)c2ncn([C@@H]3O[C@H](CO)[C@@H](O)[C@H]3O)c2c1Cl [Compound 61, 6-Amino-7-chloro-1,5-dihydro-1-β-D-ribofuranosylimidazo[4,5-c]pyridin-4-one]
IC50 (L1210 leukemia cells): 12 µM
IC50 (P388 leukemia cells): 40 µM
IC50 [1]: 30 µM
IC50 (B16F10 melanoma cells): 35 µM

EC50 (hepatitis B virus (HBV)): 7.5 µM
melting point: 175 to 177 °C
Structure (SMILES): Nc1nc(F)c(Cl)c2c1ncn2[C@@H]1O[C@H](CO)[C@@H](O)[C@H]1O [Compound 59, 4-Amino-7-chloro-6-fluoro-1-(β-D-ribofuranosyl)imidazo[4,5-c]pyridine]
IC50 (L1210 leukemia cells): 55 µM
IC50 (P388 leukemia cells): 90 µM
IC50 [1]: 60 µM
IC50 (B16F10 melanoma cells): 100 µM
activity against these neoplastic cell lines (in words) [2]: moderate to weak activities

melting point: 198 °C (dec.)
Structure (SMILES): Nc1nc(F)cc2c1ncn2[C@H]1O[C@H](CO)[C@@H](O)[C@@H]1O [Compound 44, 4-Amino-6-fluoro-1-α-D-arabinofuranosylimidazo[4,5-c]pyridine]
IC50 (L1210 leukemia cells): > 100 µM
IC50 (P388 leukemia cells): > 100 µM
IC50 [1]: > 100 µM
IC50 (B16F10 melanoma cells): > 100 µM

Structure (SMILES): Nc1nc(F)cc2c1ncn2[C@@H]1O[C@H](CO)[C@@H](O)[C@@H]1O [Compound 43, 4-Amino-6-fluoro-1-β-D-arabinofuranosylimidazo[4,5-c]pyridine]
IC50 (L1210 leukemia cells): > 100 µM
IC50 (P388 leukemia cells): > 100 µM
IC50 [1]: > 100 µM
IC50 (B16F10 melanoma cells): > 100 µM

melting point: 163 to 165 °C
Structure (SMILES): Nc1nc(F)c(F)c2c1ncn2[C@@H]1O[C@H](CO)[C@@H](O)[C@H]1O [Compound 57, 4-Amino-6,7-difluoro-1-(β-D-ribofuranosyl)imidazo[4,5-c]pyridine]
IC50 (L1210 leukemia cells): 90 µM
IC50 (P388 leukemia cells): 90 µM
IC50 [1]: 40 µM
IC50 (B16F10 melanoma cells): 100 µM
activity against these neoplastic cell lines (in words) [2]: moderate to weak activities

Structure (SMILES): Nc1[nH]c(=O)c2ncn([C@@H]3O[C@H](CO)[C@@H](O)[C@H]3O)c2c1Br [Compound 62, 6-Amino-7-bromo-1,5-dihydro-1-β-D-ribofuranosylimidazo[4,5-c]pyridin-4-one]
IC50 (L1210 leukemia cells): 3 µM
IC50 (P388 leukemia cells): 7 µM
IC50 [1]: 9 µM
IC50 (B16F10 melanoma cells): 7 µM

Structure (SMILES): CNc1nc(F)cc2c1ncn2[C@@H]1O[C@H](CO)[C@@H](O)[C@H]1O [Compound 39, 6-Fluoro-4-methylamino-1-(β-D-ribofuranosyl)imidazo[4,5-c]pyridine]
IC50 (L1210 leukemia cells): > 100 µM
IC50 (P388 leukemia cells): > 100 µM
IC50 [1]: 100 µM
IC50 (B16F10 melanoma cells): > 100 µM

Structure (SMILES): Nc1nc(F)cc2c1ncn2[C@@H]1O[C@H](CO)[C@@H](O)[C@H]1O [Compound 38, 4-Amino-6-fluoro-1-(β-D-ribofuranosyl)imidazo[4,5-c]pyridine]
IC50 (L1210 leukemia cells): 35 µM
IC50 (P388 leukemia cells): 50 µM
IC50 [1]: 100 µM
IC50 (B16F10 melanoma cells): 40 µM
activity against these neoplastic cell lines (in words) [2]: moderate to weak activities

EC50 (hepatitis B virus (HBV)): ≥ 10 µM
melting point: 155 to 157 °C
Structure (SMILES): Nc1nc(F)c(F)c2ncn([C@@H]3O[C@H](CO)[C@@H](O)[C@H]3O)c12 [Compound 58, 4-Amino-6,7-difluoro-3-(β-D-ribofuranosyl)imidazo[4,5-c]pyridine]
IC50 (L1210 leukemia cells): > 100 µM
IC50 (P388 leukemia cells): > 100 µM
IC50 [1]: > 100 µM
IC50 (B16F10 melanoma cells): > 100 µM

melting point: 166 to 168 °C
Structure (SMILES): Nc1nc(F)c(Cl)c2ncn([C@@H]3O[C@H](CO)[C@@H](O)[C@H]3O)c12 [Compound 60, 4-Amino-7-chloro-6-fluoro-3-(β-D-ribofuranosyl)imidazo[4,5-c]pyridine]
IC50 (L1210 leukemia cells): > 100 µM
IC50 (P388 leukemia cells): > 100 µM
IC50 [1]: > 100 µM
IC50 (B16F10 melanoma cells): > 100 µM

From patent US6960568B2, “Nucleosides and related processes, pharmaceutical compositions and methods” (Yale University, priority 2002, dated 2005)
